Experimental data taken from ChEMBL document CHEMBL5724806, “Unraveling interindividual differences and functional consequences of gut microbial metabolism of immunosuppressants” (2024).

Columns and labels:
Format in all cases: ADME
[1] = (§1) The drug is tested on Lactobacillus gasseri strain: DSM20243 for biotransformation under microaerobic condition. The drug concentrations were measured over 6 timepoints collected between 0 and 12 hours of incubation by liquid-chromatography-coupled mass spectrometry (LC–MS); design: dose 5 uM, timepoint 0, 1.5, 3, 6, 9, 12 hours; details: 5 µM
[2] = (§2) The drug is tested on Capnocytophaga ochracea strain: DSM7271 for biotransformation under anaerobic condition. The drug concentrations were measured over 6 timepoints collected between 0 and 12 hours of incubation by liquid-chromatography-coupled mass spectrometry (LC–MS); design: dose 5 uM, timepoint 0, 1.5, 3, 6, 9, 12 hours; details: 5 µM
[3] = as §2, with “the gut metagenome community of T-05 with ENA study accession number: PRJEB31790” for “Capnocytophaga ochracea strain: DSM7271”, “7” for “6”; design: dose 5 uM, timepoint 0, 0.75, 1.5, 3, 6, 9, 12 hours; details: 5 µM
[4] = as §2, with “the gut metagenome community of T-01 with ENA study accession number: PRJEB31790” for “Capnocytophaga ochracea strain: DSM7271”, “7” for “6”; design: dose 5 uM, timepoint 0, 0.75, 1.5, 3, 6, 9, 12 hours; details: 5 µM
[5] = The drug is tested on Bacteroides vulgatus strain: DSM1447 for biotransformation under anaerobic condition. The drug concentrations were measured over 6 timepoints collected between 0 and 12 hours of incubation by liquid-chromatography-coupled mass spectrometry (LC–MS); design: dose 5 uM, timepoint 0, 1.5, 3, 6, 9, 12 hours; details: phocaeicola vulgatus, 5 µM
[6] = The drug is tested on Bacteroides thetaiotaomicron strain: DSM2079 for biotransformation under anaerobic condition. The drug concentrations were measured over 6 timepoints collected between 0 and 12 hours of incubation by liquid-chromatography-coupled mass spectrometry (LC–MS); design: dose 5 uM, timepoint 0, 1.5, 3, 6, 9, 12 hours; details: 5 µM
[7] = The drug is tested on Actinomyces naeslundi strain: DSM43013 for biotransformation under anaerobic condition. The drug concentrations were measured over 6 timepoints collected between 0 and 12 hours of incubation by liquid-chromatography-coupled mass spectrometry (LC–MS); design: dose 5 uM, timepoint 0, 1.5, 3, 6, 9, 12 hours; details: actinomyces naeslundii, 5 µM
[8] = The drug is tested on Eubacterium eligens strain: DSM3376 for biotransformation under anaerobic condition. The drug concentrations were measured over 6 timepoints collected between 0 and 12 hours of incubation by liquid-chromatography-coupled mass spectrometry (LC–MS); design: dose 5 uM, timepoint 0, 1.5, 3, 6, 9, 12 hours; details: lachnospira eligens, 5 µM
[9] = as §1, with “the gut metagenome community of A-04 with ENA study accession number: PRJEB31790” for “Lactobacillus gasseri strain: DSM20243”, “7” for “6”; design: dose 5 uM, timepoint 0, 0.75, 1.5, 3, 6, 9, 12 hours; details: 5 µM
[10] = The drug is tested on Streptococcus mitis strain: DSM12643 for biotransformation under microaerobic condition. The drug concentrations were measured over 6 timepoints collected between 0 and 12 hours of incubation by liquid-chromatography-coupled mass spectrometry (LC–MS); design: dose 5 uM, timepoint 0, 1.5, 3, 6, 9, 12 hours; details: 5 µM

SMILES	Bacterial Biotransformation [1]	Bacterial Biotransformation [2]	Bacterial Biotransformation [3]	Bacterial Biotransformation [4]	Bacterial Biotransformation [5]	Bacterial Biotransformation [6]	Bacterial Biotransformation [7]	Bacterial Biotransformation [8]	Bacterial Biotransformation [9]	Bacterial Biotransformation [10]
CCOc1nc2cccc(C(=O)O)c2n1Cc1ccc(-c2ccccc2-c2nnn[nH]2)cc1	Compound NOT metabolized	Compound NOT metabolized	Compound NOT metabolized	Compound NOT metabolized	Compound NOT metabolized	Compound NOT metabolized	Compound NOT metabolized	Compound NOT metabolized	Compound NOT metabolized	Compound NOT metabolized
CCOC(=O)[C@H](CCc1ccccc1)N[C@@H](C)C(=O)N1[C@H](C(=O)O)C[C@@H]2CCC[C@@H]21	Compound NOT metabolized	Compound NOT metabolized	Compound NOT metabolized	Compound NOT metabolized	Compound NOT metabolized	Compound NOT metabolized	Compound NOT metabolized	Compound NOT metabolized	Compound NOT metabolized	Compound NOT metabolized
C[C@@H](NCCCc1cccc(C(F)(F)F)c1)c1cccc2ccccc12	Compound NOT metabolized	Compound NOT metabolized	Compound NOT metabolized	Compound metabolized	Compound NOT metabolized	Compound NOT metabolized	Compound NOT metabolized	Compound NOT metabolized	Compound NOT metabolized	Compound NOT metabolized
CCOC(=O)C1=C(COCCN)NC(C)=C(C(=O)OC)C1c1ccccc1Cl (stereo not given) [AMLODIPINE]	Compound NOT metabolized	Compound NOT metabolized	Compound NOT metabolized	Compound NOT metabolized	Compound NOT metabolized	Compound NOT metabolized	Compound NOT metabolized	Compound NOT metabolized	Compound NOT metabolized	Compound NOT metabolized
CC(C)NCC(O)COc1ccc(CC(N)=O)cc1 (stereo not given) [ATENOLOL]	Compound NOT metabolized	Compound NOT metabolized	Compound NOT metabolized	Compound NOT metabolized	Compound NOT metabolized	Compound NOT metabolized	Compound NOT metabolized	Compound NOT metabolized	Compound NOT metabolized	Compound NOT metabolized
Cn1cnc([N+](=O)[O-])c1Sc1ncnc2nc[nH]c12 [AZATHIOPRINE]	Compound NOT metabolized	Compound NOT metabolized	Compound metabolized	Compound metabolized	Compound metabolized	Compound metabolized	Compound NOT metabolized	Compound metabolized	Compound metabolized	Compound NOT metabolized
C[C@H]1C[C@H]2[C@@H]3CCC4=CC(=O)C=C[C@]4(C)[C@@]3(F)[C@@H](O)C[C@]2(C)[C@@]1(O)C(=O)CO [BETAMETHASONE]	Compound NOT metabolized	Compound NOT metabolized	Compound NOT metabolized	Compound NOT metabolized	Compound NOT metabolized	Compound NOT metabolized	Compound NOT metabolized	Compound NOT metabolized	Compound metabolized	Compound NOT metabolized
CCCC1O[C@@H]2C[C@H]3[C@@H]4CCC5=CC(=O)C=C[C@]5(C)[C@H]4[C@@H](O)C[C@]3(C)[C@]2(C(=O)CO)O1 (stereo not given in full) [BUDESONIDE]	Compound NOT metabolized	Compound NOT metabolized	Compound NOT metabolized	Compound metabolized	Compound NOT metabolized	Compound NOT metabolized	Compound NOT metabolized	Compound NOT metabolized	Compound metabolized	Compound NOT metabolized
C[C@]12CCC(=O)C=C1CC[C@@H]1[C@@H]2C(=O)C[C@@]2(C)[C@H]1CC[C@]2(O)C(=O)CO [CORTISONE]	Compound NOT metabolized	Compound NOT metabolized	Compound metabolized	Compound metabolized	Compound NOT metabolized	Compound NOT metabolized	Compound NOT metabolized	Compound NOT metabolized	Compound metabolized	Compound NOT metabolized
C[C@@H]1C[C@H]2[C@@H]3CCC4=CC(=O)C=C[C@]4(C)[C@@]3(F)[C@@H](O)C[C@]2(C)[C@@]1(O)C(=O)CO [DEXAMETHASONE]	Compound NOT metabolized	Compound NOT metabolized	Compound NOT metabolized	Compound NOT metabolized	Compound NOT metabolized	Compound NOT metabolized	Compound NOT metabolized	Compound NOT metabolized	Compound NOT metabolized	Compound NOT metabolized
COc1ccc([C@@H]2Sc3ccccc3N(CCN(C)C)C(=O)[C@@H]2OC(C)=O)cc1 [DILTIAZEM]	Compound metabolized	Compound NOT metabolized	Compound NOT metabolized	Compound NOT metabolized	Compound NOT metabolized	Compound metabolized	Compound NOT metabolized	Compound NOT metabolized	Compound metabolized	Compound NOT metabolized
